Experiment: molar heat capacity at constant volume
Settings: Liquid, Vacuum adiabatic calorimetry

C=C(F)C(F)(F)F [2,3,3,3-tetrafluoro-1-propene]
Settings | molar heat capacity at constant volume [J/K/mol]
240.93 K, 2261 kPa | 92.26
241.09 K, 2247 kPa | 91.8
243.43 K, 4295 kPa | 92.26
243.57 K, 4255 kPa | 92.26
245.94 K, 6342 kPa | 92.37
246.04 K, 6272 kPa | 92.15
248.38 K, 8336 kPa | 92.72
248.49 K, 8272 kPa | 93.06
250.77 K, 10288 kPa | 93.29
250.92 K, 10256 kPa | 93.4
255.49 K, 1804 kPa | 95.79
255.68 K, 1821 kPa | 96.48
257.93 K, 3569 kPa | 97.51
258.1 K, 3572 kPa | 96.48
260.34 K, 5312 kPa | 97.62
260.51 K, 5317 kPa | 97.16
262.77 K, 7065 kPa | 97.51
262.92 K, 7055 kPa | 98.53
265.3 K, 8891 kPa | 98.65
265.35 K, 8807 kPa | 98.87
267.77 K, 10554 kPa | 98.87
267.88 K, 10750 kPa | 99.22
270.17 K, 12276 kPa | 99.56
271.12 K, 1842 kPa | 101.38
273.54 K, 1673 kPa | 102.07
273.64 K, 3435 kPa | 101.5
275.98 K, 3181 kPa | 102.07
276.14 K, 5012 kPa | 101.27
278.43 K, 4690 kPa | 101.95
278.65 K, 6595 kPa | 102.3
280.94 K, 6231 kPa | 102.64
281.16 K, 8178 kPa | 101.61
283.46 K, 7781 kPa | 102.75
283.66 K, 9754 kPa | 102.52
285.91 K, 9285 kPa | 102.98
286.19 K, 11346 kPa | 103.09
288.36 K, 10789 kPa | 104.01
289.3 K, 1701 kPa | 105.15
291.52 K, 1716 kPa | 105.72
291.84 K, 3037 kPa | 105.49
294.09 K, 3043 kPa | 106.4
294.38 K, 4378 kPa | 105.37
296.67 K, 4372 kPa | 106.4
296.96 K, 5740 kPa | 105.49
299.24 K, 5702 kPa | 106.97
299.7 K, 7182 kPa | 105.94
301.83 K, 7034 kPa | 106.86
302.46 K, 8635 kPa | 106.74
304.42 K, 8365 kPa | 107.54
305.12 K, 10039 kPa | 106.29
307.01 K, 9699 kPa | 108
307.78 K, 11440 kPa | 106.97
309.61 K, 11035 kPa | 108.34
310.44 K, 12837 kPa | 107.54
312.2 K, 12365 kPa | 108.8
312.59 K, 3164 kPa | 108.57
315.28 K, 1983 kPa | 109.37
315.29 K, 4301 kPa | 108.8
317.99 K, 5437 kPa | 108.91
318.03 K, 3065 kPa | 109.71
320.68 K, 6570 kPa | 110.62
320.8 K, 4151 kPa | 110.05
323.36 K, 7700 kPa | 110.28
323.57 K, 5240 kPa | 110.62
326.04 K, 8827 kPa | 110.62
326.35 K, 6332 kPa | 111.42
328.72 K, 9952 kPa | 112.22
329.14 K, 7427 kPa | 112.67
331.41 K, 11079 kPa | 112.9
331.93 K, 8524 kPa | 113.36
334.09 K, 12201 kPa | 113.24
334.72 K, 9619 kPa | 113.47
337.49 K, 10709 kPa | 113.7
340.26 K, 11796 kPa | 114.61

CCC [propane]
Settings | molar heat capacity at constant volume [J/K/mol]
236.31 K, 2219 kPa | 65.79
238.69 K, 4211 kPa | 66.23
241.04 K, 6180 kPa | 66.67
243.36 K, 8127 kPa | 66.58
245.69 K, 10074 kPa | 66.94
250.09 K, 2085 kPa | 67.6
252.35 K, 3780 kPa | 68.13
254.59 K, 5476 kPa | 68.13
256.82 K, 7162 kPa | 67.91
259.03 K, 8839 kPa | 68.48
261.25 K, 10512 kPa | 68.61
264.41 K, 2430 kPa | 69.1
266.66 K, 3950 kPa | 69.19
268.92 K, 5488 kPa | 70.24
271.21 K, 7042 kPa | 70.33
273.5 K, 8593 kPa | 70.2
275.81 K, 10155 kPa | 70.55
283.73 K, 2629 kPa | 71.61
284.6 K, 1745 kPa | 71.3
286.92 K, 3057 kPa | 71.88
287.25 K, 4679 kPa | 71.92
289.25 K, 4373 kPa | 72.23
289.61 K, 6040 kPa | 71.96
291.57 K, 5681 kPa | 72.32
291.99 K, 7411 kPa | 72.36
293.9 K, 6981 kPa | 72.98
294.35 K, 8774 kPa | 72.85
296.28 K, 8309 kPa | 73.15
296.69 K, 10124 kPa | 72.93
298.66 K, 9622 kPa | 73.2
299 K, 11450 kPa | 73.24
300.98 K, 10901 kPa | 74.35
301.28 K, 12754 kPa | 73.24
303.33 K, 12177 kPa | 74.65
305.66 K, 13418 kPa | 75.09
306.13 K, 1912 kPa | 74.7
308.58 K, 3022 kPa | 75.58
311.04 K, 4140 kPa | 75.62
313.5 K, 5260 kPa | 76.42
315.96 K, 6379 kPa | 76.55
318.43 K, 7498 kPa | 76.59
320.89 K, 8615 kPa | 77.52
323.37 K, 9735 kPa | 77.74
325.84 K, 10852 kPa | 78.18
328.28 K, 11956 kPa | 78.89
330.71 K, 13052 kPa | 79.33
332.33 K, 10672 kPa | 78.89
334.81 K, 11722 kPa | 79.81
337.26 K, 12761 kPa | 80.47
339.76 K, 13813 kPa | 80.65
